The subject of experiment [1] is IL-1β production in PMA-differentiated THP-1 cells. Briefly: IL-1β production in PMA-differentiated THP-1 cells stimulated with gramicidin (hTHP-1 assay, 2% fetal bovine serum). As to conditions: Homo sapiens, hTHP-1 assay containing 2% fetal bovine serum. The experiment is classed as cell-based. On the procedure:
THP-1 cells were purchased from the American Type Culture Collection and sub-cultured according to instructions from the supplier. Cells were cultured in complete RPMI 1640 (containing 10% heat inactivated FBS, penicillin (100 units/ml) and streptomycin (100 μg/ml)), and maintained in log phase prior to experimental setup. Prior to the experiment, compounds were dissolved in dimethyl sulfoxide (DMSO) to generate a 30 mM stock. The compound stock was first pre-diluted in DMSO to 3, 0.34, 0.042 and 0.0083 mM intermediate concentrations and subsequently spotted using Echo550 liquid handler into an empty 384-well assay plate to achieve desired final concentration (e.g. 100, 33, 11, 3.7, 1.2, 0.41, 0.14, 0.046, 0.015, 0.0051, 0.0017 μM). DMSO was backfilled in the plate to achieve a final DMSO assay concentration of 0.37%. The plate was then sealed and stored at room temperature until required.
THP-1 cells were treated with PMA (Phorbol 12-myristate 13-acetate) (20 ng/ml) for 16-18 hours. On the day of the experiment the media was removed and adherent cells were detached with trypsin for 5 minutes. Cells were then harvested, washed with complete RPMI 1640, spun down, and resuspended in RPMI 1640 (containing 2% heat inactivated FBS, penicillin (100 units/ml) and streptomycin (100 μg/ml). The cells were plated in the 384-well assay plate containing the spotted compounds at a density of 50,000 cells/well (final assay volume 50 μl). Cells were incubated with compounds for 1 hour and then stimulated with gramicidin (5 μM) (Enzo) for 2 hours. Plates were then centrifuged at 340 g for 5 min. Cell free supernatant (40 μL) was collected using a 96-channel PlateMaster (Gilson) and the production of IL-1β was evaluated by HTRF (cisbio). The plates were incubated for 18 h at 4° C. and read using the preset HTRF program (donor emission at 620 nm, acceptor emission at 668 nm) of the SpectraMax i3x spectrophotometer (Molecular Devices, software SoftMax 6). A vehicle only control and a dose titration of CRID3 (100-0.0017 μM) were run concurrently with each experiment. […]

The test system of experiment [2] is ex-vivo stimulated IL-1β release in whole blood. Briefly: First-in-human study: ex-vivo LPS stimulation of whole blood, IL-1β release (PD). The experiment is classed as cell-based. The method, then:
To determine the PD response to NLRP3 inhibition, whole blood samples were collected for exploratory PD analysis (Part A and Groups 1-3 of Part C). An ex-vivo stimulation by activating the NLRP3 inflammasome with lipopolysaccharide (LPS) was evaluated compared to control conditions, followed by analysis of blood cell release of the inflammatory marker IL-1β.
Combined individual and mean plots of the individual IL-1β concentrations versus time are presented by treatment. Modeling of Compound IA effects on a corrected, stimulated ex vivo Lipopolysaccharide (LPS) challenge in whole blood included evaluation of the relationship between LPS challenge results by conditionally weighted residual modeling.

The mark [3] stands for this setting: fractional Emax model with Hill coefficient.

In general, IC50 refers to the midpoint of a concentration-inhibition curve. Usually IC90 stands for the concentration at which the effect reaches the 90% level. What is called EC50 is the concentration giving half of the maximal effect. A word on the EC90: it is the point of the concentration-response curve where the effect stands at 90%.

Take `CC(C)(O)c1ncc([S@](N)(=O)=NC(=O)Nc2c3c(cc4c2CCC4)CCC3)s1` [Compound IA, (R)-N′-((1,2,3,5,6,7-hexahydro-s-indacen-4-yl)carbamoyl)-2-(2-hydroxypropan-2-yl) thiazole-5-sulfonimidamide]: the IC50 in experiment [1] fell in the range of 8 to 40 nM. The IC90 in experiment [2] (Homo sapiens, LPS challenge, median, 90% CI 2.84, 3.54, read-out: IC90, inhibiting 90% of ex-vivo stimulated IL-1β release) came out at 3180 nM. Further, the IC50 in experiment [2] (Homo sapiens, relative to 100% inhibition, 90% CI 0.118, 0.179) is 146 nM. Further, the EC50 in experiment [2] (Homo sapiens, relative to estimated maximum effect, 90% CI 0.114, 0.171) was 141 nM. For the same compound, the EC90 in experiment [2] (Homo sapiens, relative to estimated maximum effect, 90% CI 2.24, 2.94) was 2570 nM. Moreover, in experiment [2] (setting [3]), the “Emax of IL-1β, arithmetic mean (±SD)” value is −0.985 (±0.00277) and the “observed stimulation effect of IL-1β, arithmetic mean (±SD)” value is recorded as 1820 (±102) ng/L. Moreover, the “time after dosing from which inhibition of IL-1β was observed” value in experiment [2] (most dose levels) is 1 h. For the same compound, in experiment [2] (single and multiple oral doses), the “concentrations of IL-1β with increasing doses” value is listed as “dose-dependent decreases”.

Source of the values: patent US20250082611A1, “DOSING REGIMEN FOR AN NLRP3 INHIBITOR IN THE TREATMENT OF OSTEOARTHRITIS” (Novartis AG, priority 2021, published 2025).
